Measured values: DBAASP
≈ marks a conversion by molar mass, not a printed value.

Tests used:
Experiment in all cases: ≥ marks a high value that may be exact or a test limit, other limits are often not marked, values filed in µg/mL are converted to µM
[1] = tested on: Bacillus subtilis
[2] = tested on: Candida albicans ATCC 2002
[3] = tested on: Escherichia coli ML-35p
[4] = tested on: Pseudomonas aeruginosa ATCC 27853
[5] = tested on: Pseudomonas aeruginosa PAO1
[6] = tested on: Staphylococcus aureus ATCC 2592
[7] = tested on: Staphylococcus aureus ATCC 43300
[8] = tested on: Candida albicans ATCC 90028
[9] = tested on: Escherichia coli ATCC 25726
[10] = tested on: Staphylococcus aureus ATCC 25923
[11] = tested on: Escherichia coli ATCC 25922
[12] = tested on: Staphylococcus aureus NCTC 8325
[13] = tested on: Acinetobacter baumannii
[14] = tested on: Micrococcus luteus ATCC 9341

SMILES	MIC [8] [µM]	MIC [9] [µM]	MIC [10] [µM]	MIC [14] [µM]	other results
CC[C@H](C)[C@H](NC(=O)CNC(=O)[C@@H](NC(=O)[C@H](C)NC(=O)[C@H](CCSC)NC(=O)[C@H](CCCCN)NC(=O)[C@@H](NC(=O)[C@@H](NC(=O)[C@@H]1CCCN1C(=O)CNC(=O)[C@H](CC(C)C)NC(=O)[C@@H](N)Cc1ccccc1)[C@@H](C)CC)[C@@H](C)CC)[C@@H](C)O)C(=O)N[C@@H](CC(C)C)C(=O)N1CCC[C@H]1C(=O)N[C@H](C(=O)N[C@@H](C)C(=O)N[C@H](C(=O)N[C@H]1CSSC[C@@H](C(=O)O)NC(=O)[C@H](CCCCN)NC(=O)[C@H](CCCCN)NC(=O)[C@H](CC(C)C)NC(=O)CNC(=O)[C@H](CCCCN)NC1=O)[C@@H](C)CC)[C@@H](C)O [FLGPIIKMATGILPTAICKGLKKC]	–	–	–	–	MIC [1]: 7.95 µM (≈ 20 µg/mL); MIC [2]: 1.99 µM (≈ 5 µg/mL); MIC [3]: 19.9 µM (≈ 50 µg/mL); MIC [4]: 1.99 µM (≈ 5 µg/mL); MIC [5]: 3.97 µM (≈ 9.99 µg/mL); MIC [6]: 0.993 µM (≈ 2.5 µg/mL); MIC [7]: 0.993 µM (≈ 2.5 µg/mL)
CC[C@H](C)[C@H](NC(=O)CN)C(=O)NCC(=O)N[C@@H](CCCCN)C(=O)N[C@@H](Cc1ccccc1)C(=O)N[C@@H](CC(C)C)C(=O)N[C@@H](Cc1cnc[nH]1)C(=O)N[C@@H](CO)C(=O)N[C@@H](C)C(=O)NCC(=O)N[C@@H](CCCCN)C(=O)N[C@@H](Cc1ccccc1)C(=O)NCC(=O)N[C@@H](CCCCN)C(=O)N[C@@H](C)C(=O)N[C@@H](Cc1ccccc1)C(=O)N[C@H](C(=O)NCC(=O)N[C@@H](CCC(=O)O)C(=O)N[C@H](C(=O)N[C@@H](CCSC)C(=O)N[C@@H](CCCCN)C(=O)N[C@@H](CO)C(=O)O)[C@@H](C)CC)[C@@H](C)CC [GIGKFLHSAGKFGKAFIGEIMKS]	25 (≈ 60.6 µg/mL)	12.5 (≈ 30.3 µg/mL)	50 (≈ 121 µg/mL)	–	–
CC[C@H](C)[C@H](NC(=O)CN)C(=O)N[C@@H](CC(C)C)C(=O)N[C@@H](CO)C(=O)N[C@@H](CO)C(=O)N[C@H](C(=O)N[C@@H](CCCCN)C(=O)NCC(=O)N[C@H](C(=O)N[C@@H](C)C(=O)N[C@@H](CCCCN)C(=O)NCC(=O)N[C@H](C(=O)N[C@@H](C)C(=O)N[C@@H](CCCCN)C(=O)N[C@@H](CC(N)=O)C(=O)N[C@H](C(=O)N[C@@H](C)C(=O)N[C@@H](C)C(=O)N[C@@H](CCC(N)=O)C(=O)N[C@@H](CC(C)C)C(=O)N[C@@H](CC(C)C)C(=O)N[C@@H](CC(=O)O)C(=O)N[C@H](C(=O)N[C@@H](CC(C)C)C(=O)N[C@@H](CCCCN)C(=O)N[C@H]1CSSC[C@@H](C(=O)O)NC(=O)CNC(=O)[C@H]([C@@H](C)O)NC(=O)[C@H]([C@@H](C)CC)NC(=O)[C@H](CCCCN)NC1=O)[C@@H](C)O)C(C)C)C(C)C)C(C)C)[C@@H](C)CC [GILSSIKGVAKGVAKNVAAQLLDTLKCKITGC]	≥ 62	6 (≈ 19.2 µg/mL)	6 (≈ 19.2 µg/mL)	–	MIC [11]: 4 µM (≈ 12.8 µg/mL); MIC [12]: 4 µM (≈ 12.8 µg/mL)
CC[C@H](C)[C@H](NC(=O)CN)C(=O)N[C@@H](Cc1c[nH]c2ccccc12)C(=O)N[C@@H](CC(=O)O)C(=O)N[C@H](C(=O)N[C@H](C(=O)N[C@@H](CCCCN)C(=O)N[C@@H](CO)C(=O)N[C@@H](CCSC)C(=O)NCC(=O)N[C@@H](CCCCN)C(=O)N[C@H](C(=O)N[C@@H](Cc1ccccc1)C(=O)N[C@@H](C)C(=O)NCC(=O)N[C@@H](C)C(=O)N[C@H](C(=O)N[C@@H](CC(C)C)C(=O)N[C@@H](CCC(N)=O)C(=O)N[C@@H](CC(N)=O)C(=O)N[C@@H](CC(C)C)C(N)=O)[C@@H](C)CC)C(C)C)[C@@H](C)CC)[C@@H](C)O [GIWDTIKSMGKVFAGAILQNL]	25 (≈ 56.5 µg/mL)	≥ 50	12.5 (≈ 28.3 µg/mL)	–	MIC [13]: 12.5 µM (≈ 28.3 µg/mL)
CC[C@H](C)[C@H](NC(=O)CN)C(=O)N[C@@H](Cc1c[nH]c2ccccc12)C(=O)N[C@@H](CC(=O)O)C(=O)N[C@H](C(=O)N[C@H](C(=O)N[C@@H](CCCCN)C(=O)N[C@@H](CO)C(=O)N[C@@H](CCSC)C(=O)NCC(=O)N[C@@H](CCCCN)C(=O)N[C@H](C(=O)N[C@@H](Cc1ccccc1)C(=O)N[C@@H](C)C(=O)NCC(=O)N[C@@H](CCCCN)C(=O)N[C@H](C(=O)N[C@@H](CCCCN)C(=O)N[C@@H](CCC(N)=O)C(=O)N[C@@H](CC(N)=O)C(=O)N[C@@H](CC(C)C)C(N)=O)[C@@H](C)CC)C(C)C)[C@@H](C)CC)[C@@H](C)O [GIWDTIKSMGKVFAGKIKQNL]	25 (≈ 58.3 µg/mL)	≥ 50	> 100	–	MIC [13]: 12.5 µM (≈ 29.2 µg/mL)

Now from value to molecule, other results behind:

MIC [8] [µM]	MIC [9] [µM]	MIC [10] [µM]	MIC [14] [µM]	SMILES	other results
–	–	–	0.4 (≈ 0.714 µg/mL)	CC[C@H](C)[C@H](N)C(=O)N[C@@H](CC(C)C)C(=O)NCC(=O)N[C@@H](Cc1c[nH]c2ccccc12)C(=O)N[C@@H](CCCCN)C(=O)N[C@@H](Cc1c[nH]c2ccccc12)C(=O)NCC(=O)N[C@@H](Cc1c[nH]c2ccccc12)C(=O)N[C@@H](Cc1c[nH]c2ccccc12)C(=O)NCC(=O)N[C@@H](Cc1c[nH]c2ccccc12)C(=O)N[C@@H](CCCN=C(N)N)C(=O)N[C@@H](CCCN=C(N)N)C(N)=O [ILGWKWGWWGWRR]	–
–	–	–	0.8 (≈ 1.43 µg/mL)	CC[C@H](C)[C@H](N)C(=O)N[C@@H](CC(C)C)C(=O)N1CCC[C@H]1C(=O)N[C@@H](Cc1c[nH]c2ccccc12)C(=O)N[C@@H](CCCCN)C(=O)N[C@@H](Cc1c[nH]c2ccccc12)C(=O)N1CCC[C@H]1C(=O)N[C@@H](Cc1c[nH]c2ccccc12)C(=O)N[C@@H](C)C(=O)N1CCC[C@H]1C(=O)N[C@@H](Cc1c[nH]c2ccccc12)C(=O)N[C@@H](CCCN=C(N)N)C(=O)N[C@@H](CCCN=C(N)N)C(N)=O [ILPWKWPWAPWRR]	–
–	–	–	1.6 (≈ 2.1 µg/mL)	CC[C@H](C)[C@H](N)C(=O)N[C@@H](CC(C)C)C(=O)N1CCC[C@H]1C(=O)N[C@@H](Cc1c[nH]c2ccccc12)C(=O)N[C@@H](CCCCN)C(=O)N[C@@H](Cc1c[nH]c2ccccc12)C(=O)N1CCC[C@H]1C(=O)N[C@@H](Cc1c[nH]c2ccccc12)C(=O)N[C@@H](Cc1c[nH]c2ccccc12)C(N)=O [ILPWKWPWW]	–
–	≥ 40	10 (≈ 25.7 µg/mL)	–	CC[C@H](C)[C@H](N)C(=O)N[C@H](C(=O)N[C@H](C(=O)N1CCC[C@H]1C(=O)N1CCC[C@H]1C(=O)N[C@H](C(=O)N[C@H](C(=O)N[C@@H](CCCCN)C(=O)N[C@@H](CC(N)=O)C(=O)N[C@H](C(=O)N[C@@H](CC(C)C)C(=O)N[C@@H](CCCCN)C(=O)N[C@@H](CCCCN)C(=O)N[C@@H](Cc1ccccc1)C(=O)N[C@H](C(=O)N[C@@H](CCCCN)C(=O)NCC(=O)N[C@@H](C)C(=O)N[C@H](C(=O)N[C@@H](CO)C(=O)N[C@@H](C)C(=O)N[C@@H](CC(C)C)C(=O)N[C@@H](CCSC)C(=O)N[C@@H](CO)C(=O)O)C(C)C)[C@@H](C)CC)[C@@H](C)O)C(C)C)[C@@H](C)CC)[C@@H](C)CC)[C@@H](C)O [ITIPPIVKNTLKKFIKGAVSALMS]	–
–	–	–	0.4 (≈ 0.684 µg/mL)	CC[C@H](C)[C@H](NC(=O)[C@H](CC(C)C)NC(=O)[C@@H]1CCCN1C(=O)[C@H](Cc1ccccc1)NC(=O)[C@H](CCCCN)NC(=O)[C@H](Cc1ccccc1)NC(=O)[C@@H]1CCCN1C(=O)[C@H](Cc1ccccc1)NC(=O)[C@H](Cc1ccccc1)NC(=O)[C@@H]1CCCN1C(=O)[C@H](Cc1ccccc1)NC(=O)[C@H](CCCN=C(N)N)NC(=O)[C@@H](N)CCCN=C(N)N)C(N)=O [RRFPFFPFKFPLI]	–
